Assay results as given in ChEMBL document CHEMBL1201862, “PubChem BioAssay data set” (2004).
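Values below derive from 48-hour exposures of cells grown in 96-well plates, with endpoints linearly interpolated between the two concentrations bracketing the appropriate inhibition level. At the GI50, growth is halved.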 Activity calls are given as the source filed them. No stated cut-off is given here; in the data, active = GI50 up to about 1.1 µM and inactive = higher.

Key:
Assay in all cases: NCI-60 cell line screen, 48 h
NCI/ADR-RES = tested on: NCI/ADR-RES
OVCAR-8 = tested on: OVCAR-8
MDA-MB-231 = tested on: MDA-MB-231
786-0 = tested on: 786-0
SNB-19 = tested on: SNB-19
HL-60 = tested on: HL-60
CAKI-1 = tested on: CAKI-1
PC-3 = tested on: PC-3
MDA-MB-435 = tested on: MDA-MB-435
SNB-75 = tested on: SNB-75
NCI-H522 = tested on: NCI-H522
T47D = tested on: T47D
LOX IMVI = tested on: LOX IMVI
Malme-3M = tested on: Malme-3M
SR = tested on: SR
BT-549 = tested on: BT-549
HCC 2998 = tested on: HCC 2998
MDA-N = tested on: MDA-N
MCF7 = tested on: MCF7

Row | SMILES | GI50 (NCI/ADR-RES) | GI50 (OVCAR-8) | GI50 (MDA-MB-231) | GI50 (786-0) | GI50 (SNB-19) | GI50 (HL-60) | GI50 (CAKI-1) | GI50 (PC-3) | GI50 (MDA-MB-435) | GI50 (SNB-75) | GI50 (NCI-H522) | GI50 (T47D) | GI50 (LOX IMVI) | GI50 (Malme-3M) | GI50 (SR) | GI50 (BT-549) | GI50 (HCC 2998) | GI50 (MDA-N) | GI50 (MCF7)
1 | COC(=O)[C@@H]1CN(C(=O)Cc2ccccc2)C(=O)N1 | > 100 µM (inactive) | > 100 µM (inactive) | > 100 µM (inactive) | > 100 µM (inactive) | > 100 µM (inactive) | > 100 µM (inactive) | > 100 µM (inactive) | > 100 µM (inactive) | > 100 µM (inactive) | 93.8 µM (inactive) | > 100 µM (inactive) | > 100 µM (inactive) | > 100 µM (inactive) | > 100 µM (inactive) | > 100 µM (inactive) | – | – | – | –
2 | O=C1Cc2c(-c3ccccc3)cc(-c3ccccc3)nc2-c2ccccc2N1 | 3.61 µM (inactive) | 3.56 µM (inactive) | 3.48 µM (inactive) | – | 2.78 µM (inactive) | 75.9 µM (inactive) | 3.64 µM (inactive) | 8.69 µM (inactive) | 15.9 µM (inactive) | 2.59 µM (inactive) | 7.18 µM (inactive) | 10.9 µM (inactive) | 4.37 µM (inactive) | 9.79 µM (inactive) | – | 6.01 µM (inactive) | 2.71 µM (inactive) | > 10 µM (inactive) | –
3 | O=C(Cc1ccccc1)NN1C(=O)/C(=C\c2cccc(O)c2)S/C1=N\c1ccccc1 | > 100 µM (inactive) | > 100 µM (inactive) | 45.8 µM (inactive) | > 100 µM (inactive) | > 100 µM (inactive) | – | – | – | > 100 µM (inactive) | > 100 µM (inactive) | – | 57.3 µM (inactive) | – | – | – | – | > 100 µM (inactive) | > 100 µM (inactive) | > 100 µM (inactive)
4 | CO/C(=N\N=C\c1ccc(Cl)c(Cl)c1)c1ccncc1 | > 10 µM (inactive) | > 10 µM (inactive) | – | > 10 µM (inactive) | > 10 µM (inactive) | > 10 µM (inactive) | > 10 µM (inactive) | > 10 µM (inactive) | – | 9.86 µM (inactive) | – | > 10 µM (inactive) | > 10 µM (inactive) | > 10 µM (inactive) | 2.75 µM (inactive) | – | > 10 µM (inactive) | > 10 µM (inactive) | > 10 µM (inactive)
5 | COc1ccc(C[C@H](N)C(=O)N2C[C@H](CO)C[C@H](n3cnc4c(N(C)C)ncnc43)C2)cc1 | – | > 100 µM (inactive) | – | – | > 100 µM (inactive) | 73.5 µM (inactive) | > 100 µM (inactive) | – | – | – | > 100 µM (inactive) | – | > 100 µM (inactive) | > 100 µM (inactive) | > 100 µM (inactive) | – | > 100 µM (inactive) | – | –
6 | COc1ccc(/C=C/c2ccnc3ccccc23)cc1 | 14.2 µM (inactive) | – | – | 16.8 µM (inactive) | 19.3 µM (inactive) | 6.78 µM (inactive) | 17.7 µM (inactive) | 18.2 µM (inactive) | 17.1 µM (inactive) | – | 17.5 µM (inactive) | 4.9 µM (inactive) | 16.5 µM (inactive) | 16.7 µM (inactive) | 29.3 µM (inactive) | – | 20.1 µM (inactive) | 16.6 µM (inactive) | 15.6 µM (inactive)
7 | CC(=O)O[C@H]1CC[C@]2(C=O)[C@H]3CC[C@]4(C)[C@@H](C5=CC(=O)OC5)CC[C@]4(O)[C@@H]3CC[C@]2(O)C1 [STROPHANTHIDIN ACETATE] | 0.197 µM (active) | 0.267 µM (active) | 0.769 µM (active) | 0.212 µM (active) | 0.608 µM (active) | 0.344 µM (active) | 0.0536 µM (active) | 0.264 µM (active) | 0.272 µM (active) | 0.601 µM (active) | 0.0336 µM (active) | 0.407 µM (active) | 0.222 µM (active) | 0.231 µM (active) | 0.528 µM (active) | 0.144 µM (active) | 0.325 µM (active) | 0.282 µM (active) | –
8 | O=C1CSC(C(/N=N/c2ccc(Cl)cc2)c2nc3ccccc3[nH]2)=N1 (stereo unspecified) | – | 82.8 µM (inactive) | – | – | 50.6 µM (inactive) | 51.6 µM (inactive) | > 100 µM (inactive) | – | – | 25.6 µM (inactive) | 25.9 µM (inactive) | – | – | > 100 µM (inactive) | 76.4 µM (inactive) | – | 25.6 µM (inactive) | – | –
9 | COc1ccc(-c2c3c(nc4nc(SC)nc(SC)c24)CCCC3)cc1OC | – | – | 40.6 µM (inactive) | – | > 100 µM (inactive) | 25.1 µM (inactive) | 67.9 µM (inactive) | 60 µM (inactive) | 54.3 µM (inactive) | 28.2 µM (inactive) | 31.6 µM (inactive) | 47.6 µM (inactive) | 46.6 µM (inactive) | 42.5 µM (inactive) | 8.07 µM (inactive) | > 100 µM (inactive) | > 100 µM (inactive) | 29.9 µM (inactive) | 41.5 µM (inactive)
10 | O=c1cc(-c2nc3ccccc3[nH]2)[nH]c2nc(-c3nc4ccccc4[nH]3)cc(-c3ccc(Cl)cc3)c12 | 28.4 µM (inactive) | 28.6 µM (inactive) | 15.8 µM (inactive) | – | 46.3 µM (inactive) | 24.9 µM (inactive) | 21.9 µM (inactive) | 19.5 µM (inactive) | 15.7 µM (inactive) | – | 6.27 µM (inactive) | 14.4 µM (inactive) | 15.5 µM (inactive) | 23 µM (inactive) | 15.2 µM (inactive) | 35.9 µM (inactive) | – | 20.5 µM (inactive) | 12.9 µM (inactive)
11 | NC12CCC(CC1=O)C2 (stereo unspecified) | > 100 µM (inactive) | > 100 µM (inactive) | > 100 µM (inactive) | – | – | > 100 µM (inactive) | – | > 100 µM (inactive) | > 100 µM (inactive) | > 100 µM (inactive) | – | > 100 µM (inactive) | > 100 µM (inactive) | > 100 µM (inactive) | > 100 µM (inactive) | – | > 100 µM (inactive) | > 100 µM (inactive) | > 100 µM (inactive)
12 | OC[C@@H](O)[C@H]1NC[C@@H](O)[C@H]1O | – | > 100 µM (inactive) | – | > 100 µM (inactive) | > 100 µM (inactive) | > 100 µM (inactive) | > 100 µM (inactive) | > 100 µM (inactive) | > 100 µM (inactive) | > 100 µM (inactive) | > 100 µM (inactive) | – | – | > 100 µM (inactive) | > 100 µM (inactive) | > 100 µM (inactive) | > 100 µM (inactive) | > 100 µM (inactive) | > 100 µM (inactive)
13 | CC(=O)N1N=C(c2ccc3ccccc3c2O)CC1c1cccs1 (stereo unspecified) | 13.6 µM (inactive) | 16.9 µM (inactive) | 20.6 µM (inactive) | – | – | – | 20.1 µM (inactive) | 11.1 µM (inactive) | 18 µM (inactive) | 25.5 µM (inactive) | 14.9 µM (inactive) | 11.6 µM (inactive) | – | 10.4 µM (inactive) | 3.6 µM (inactive) | 19.5 µM (inactive) | 21.6 µM (inactive) | 20.2 µM (inactive) | 10.9 µM (inactive)
14 | Cc1ccc(Nc2nc(=O)c3c([nH]c4ccccc43)s2)cc1 | 14.2 µM (inactive) | 15.4 µM (inactive) | 17.1 µM (inactive) | 14.5 µM (inactive) | 26.4 µM (inactive) | 14.8 µM (inactive) | 8.55 µM (inactive) | 15.1 µM (inactive) | 2.48 µM (inactive) | 16.1 µM (inactive) | 14.6 µM (inactive) | 15.4 µM (inactive) | 13 µM (inactive) | 10.6 µM (inactive) | 4.68 µM (inactive) | 18.2 µM (inactive) | – | 2.34 µM (inactive) | –
